{
  "source": "patent US20150126368A1",
  "about": "“METHOD OF PROVIDING PLANT WITH STRESS RESISTANCE” (Nippon Soda Co., Ltd., priority 2012, published 2015)",
  "format_in_all_cases": "in vivo",
  "key": {"Tomato (breed: Momotaro)": {"tested_on": "Tomato (breed: Momotaro)", "assay": "Evaluation test for relief effects of high temperature injury on tomato", "conditions": "sprayed on stem and leaf, 2 days 30° C., then 6 days 40° C. daylight/30° C. dark, vs solvent only", "procedure": "N,N-dimethylformamide based solutions were prepared according to the formulations shown in Table 3 to give chemical solutions for the tests.\nTomato (breed: Momotaro) grown up to the 2.5 leaf stage in a greenhouse was prepared.\nThe above chemical solution was sprayed to the stem and leaf parts of the above tomato nursery plants in a sufficient amount, and then air dried. They were allowed to grow at 30° C. for 2 days under conditions of 16 hours under a daylight condition and 8 hours under a dark condition. Then, they were allowed to grow for 6 days under conditions of 16 hours under a daylight condition at 40° C. and 8 hours under a dark condition at 30° C.\nDisorders were evaluated by 11 levels of disorder indices from 0 (no disorders) to 10 (withering to death).\nHigh temperature injury relief percentages as compared with a region treated with solvent DMF only (Chemical solution 3) were computed by the following formula.\nHigh temperature injury relief percentage=((disorder index of region treated with solvent only)−(disorder index of each treatment region))/(disorder index of region treated with solvent only)×100"}, "Tomato (breed: Reiryo)": {"tested_on": "Tomato (breed: Reiryo)", "assay": "Evaluation test for relief effects of strong light injury on tomato", "conditions": "summer blazing sun, 4 days after spraying", "procedure": "Tomato (breed: Reiryo, 2 reprications) grown up to the two leaf stage in a greenhouse was prepared.\nA water dispersible granule of 30% of ascorbyl palmitate and pyraclostrobin dissolved to 40% N,N-dimethylformamide were diluted with tap water to each of the concentrations described in Table 9, and the diluted solution was sprayed over the whole nursery plants in a sufficient amount. After air dried, they were exposed to strong light under summer blazing sun. A degree of disorder was investigated at the elapsed time of 4 days after the spraying.\nFor disorder, a degree of necrosis due to light effects was evaluated by 11 levels of disorder indices from 0 (no necrosis) to 10 (withering to death). From this, disorder relief percentages were computed by the following formula.\nInjury relief percentage=((disorder index of untreated region)−(disorder index of each treated region))/(disorder index of untreated region)×100"}, "Tomato (breed: Reiyo)": {"tested_on": "Tomato (breed: Reiyo)", "assay": "Evaluation test for relief effects of low temperature injury on tomato", "conditions": "one night outside at average 0.5° C.", "procedure": "Tomato (breed: Reiyo, 4 reprications) grown up to the 3.5 leaf stage in a greenhouse was prepared.\nA water dispersible granule of 30% ascorbyl palmitate and pyraclostrobin dissolved to 40% with N,N-dimethylformamide were diluted with tap water to a concentration described in Table 7, and the diluted solution was sprayed over the whole nursery plants in a sufficient amount. After air dried, they were transferred to the outside of the greenhouse at an average temperature of 0.5° C. during night to investigate a degree of low temperature injury on the next morning.\nDisorders were evaluated by 5 levels of disorder indices of 0 (no disorder) to 4 (complete withering). From this, disorder relief percentages were computed by the following formula.\nLow temperature injury relief percentage=(disorder index of untreated region)−(disorder index of each treatment region)/(disorder index of untreated region)×100"}, "[1]": {"tested_on": "Cucumber (breed: Sagamihanjirohushinari)", "assay": "Evaluation test for relief effects of submergence disorder on cucumber", "conditions": "flood from 2 days, raw weight 11 days after spray", "procedure": "Cucumber (breed: Sagamihanjirohushinari, 2 reprications) grown up to the two leaf stage in a greenhouse was prepared.\nA water dispersible granule of 30% ascorbyl palmitate and pyraclostrobin adjusted to 40% with N,N-dimethylformamide were diluted with tap water to a predetermined concentration, and the diluted solution was sprayed in a sufficient amount. They were subjected to flood conditions up to immediately below the cotyledon from 2 days after the spray treatment, and the raw weights of an above ground part and a root part of cucumber were each measured at the elapsed time of 11 days after the spray treatment. From this, injury relief percentages were computed by the following formula.\nFlood injury relief percentage=((raw weight of each treatment region)−(raw weight of untreated region))/(raw weight of untreated region)×100"}, "[2]": {"tested_on": "Eustoma grandiflorum (breed: King of Snow)", "assay": "Evaluation test for relief effects of high temperature injury on Eustoma grandiflorum", "conditions": "ascorbyl palmitate 600 ppm, sprayed 10 times; 2 weeks at 35° C. daylight/15° C. dark", "procedure": "Eustoma grandiflorum (breed: King of Snow) grown at a temperature of 22° C. and 16 hours under dark condition in a cell tray in the room was prepared. When an appropriately half were sprouted after seeding, a water dispersible granule of 30% ascorbyl palmitate was diluted with distilled water to a predetermined concentration, and the diluted solution was sprayed on the whole nursery plants in a sufficient amount. Subsequently, spraying by the same method was performed two times a week for the total of 10 times including the first application. Meanwhile, they were transferred to under conditions of 16 hours under a daylight condition at 35° C. and 8 hours under a dark condition at 15° C. at the expansion stage of a pair of true leaves 3 weeks after seeding, and allowed to grow for 2 weeks. Further, they were transferred to in a glass greenhouse and allowed to grow. Then naturalization was performed upon the expansion stage of two pairs of true leaves 8 week after seeding, and continuously allowed to grow in the greenhouse. Subsequently, the number of those bloomed out of the bolting plants was investigated."}, "[3]": {"tested_on": "Cherry tomato (breed; Regina)", "assay": "Evaluation test for relief effects of high temperature injury on cherry tomato", "conditions": "30% water dispersible granule at plant foot at intervals of seven days", "procedure": "Cherry tomato (breed; Regina, 5 reprications) grown in a greenhouse was prepared.\nOn August 24 at the first inflorescence anthesis, 0.15% of 4-chlorophenoxyacetic acid was sprayed, and a water dispersible granule of 30% ascorbyl palmitate in an amount described in Table 4 was further applied at the plant foot at intervals of seven days. All fruits were harvested on September 28, and the color of a fruit (classified into red and green), the weight of a fruit, and the number of fruits were investigated to calculate the weight per fruit and the percentage of red fruits (%)."}, "[4]": {"conditions": "ascorbyl palmitate 1000 ppm spray"}},
  "data": [
    {"smiles": "COC(=O)N(OC)c1ccccc1COc1ccn(-c2ccc(Cl)cc2)n1", "note": "[Pyraclostrobin, reference compound]", "values": [
      {"measurement": "relief percents of high-temperature injury (%)", "setting": "Tomato (breed: Momotaro); Pyraclostrobin 40 ppm in DMF", "value": 35, "unit": "%"},
      {"measurement": "relief percents of strong light injury (%)", "setting": "Tomato (breed: Reiryo); Pyraclostrobin 50 ppm spray", "value": 40, "unit": "%"},
      {"measurement": "relief percents of low-temperature injury(%)", "setting": "Tomato (breed: Reiyo); Pyraclostrobin 50 ppm spray", "value": 25, "unit": "%"},
      {"measurement": "relief percents of flood injury in aerial part(%)", "setting": "[1]; Pyraclostrobin 50 ppm spray", "value": 61.7, "unit": "%"},
      {"measurement": "relief percents of flood injury in root(%)", "setting": "[1]; Pyraclostrobin 50 ppm spray", "value": 39.0, "unit": "%"}
    ]},
    {"smiles": "CCCCCCCCCCCCCCCC(=O)OC[C@H](O)[C@H]1OC(=O)C(O)=C1O", "note": "[ascorbyl palmitate]", "values": [
      {"measurement": "Number of bloomed plants", "setting": "[2]", "value": 12},
      {"measurement": "Number of bolting plants", "setting": "[2]", "value": 16},
      {"measurement": "Percents of bloomed plants(%)", "setting": "[2]", "value": 75.0, "unit": "%"},
      {"measurement": "relief percents of high-temperature injury (%)", "setting": "Tomato (breed: Momotaro); ascorbyl palmitate 800 ppm in DMF", "value": 57, "unit": "%"},
      {"measurement": "relief percents of strong light injury (%)", "setting": "Tomato (breed: Reiryo); [4]", "value": 50, "unit": "%"},
      {"measurement": "color of fruit: Number of green fruits", "setting": "[3]; dosage 0.1 g/stock", "value": 13},
      {"measurement": "color of fruit: Number of red fruits", "setting": "[3]; dosage 0.1 g/stock", "value": 19},
      {"measurement": "color of fruit: Percents of red fruits vs. no treatment region(%)", "setting": "[3]; dosage 0.1 g/stock", "value": 141, "unit": "%"},
      {"measurement": "color of fruit: Percents of red fruits(%)", "setting": "[3]; dosage 0.1 g/stock", "value": 59, "unit": "%"},
      {"measurement": "yield: Total number of fruits", "setting": "[3]; dosage 0.1 g/stock", "value": 32},
      {"measurement": "yield: Total weight of fruits", "setting": "[3]; dosage 0.1 g/stock", "value": 304, "unit": "g"},
      {"measurement": "yield: weight per fruit vs. no treatment region(%)", "setting": "[3]; dosage 0.1 g/stock", "value": 138, "unit": "%"},
      {"measurement": "yield: weight per fruit(g/fruit)", "setting": "[3]; dosage 0.1 g/stock", "value": 9.5, "unit": "g/fruit"},
      {"measurement": "color of fruit: Number of green fruits", "setting": "[3]; dosage 0.5 g/stock", "value": 4},
      {"measurement": "color of fruit: Number of red fruits", "setting": "[3]; dosage 0.5 g/stock", "value": 29},
      {"measurement": "color of fruit: Percents of red fruits vs. no treatment region(%)", "setting": "[3]; dosage 0.5 g/stock", "value": 209, "unit": "%"},
      {"measurement": "color of fruit: Percents of red fruits(%)", "setting": "[3]; dosage 0.5 g/stock", "value": 88, "unit": "%"},
      {"measurement": "yield: Total number of fruits", "setting": "[3]; dosage 0.5 g/stock", "value": 33},
      {"measurement": "yield: Total weight of fruits", "setting": "[3]; dosage 0.5 g/stock", "value": 342, "unit": "g"},
      {"measurement": "yield: weight per fruit vs. no treatment region(%)", "setting": "[3]; dosage 0.5 g/stock", "value": 151, "unit": "%"},
      {"measurement": "yield: weight per fruit(g/fruit)", "setting": "[3]; dosage 0.5 g/stock", "value": 10.4, "unit": "g/fruit"},
      {"measurement": "relief percents of low-temperature injury(%)", "setting": "Tomato (breed: Reiyo); ascorbyl palmitate 500 ppm spray", "value": 100, "unit": "%"},
      {"measurement": "relief percents of flood injury in aerial part(%)", "setting": "[1]; [4]", "value": 31.9, "unit": "%"},
      {"measurement": "relief percents of flood injury in root(%)", "setting": "[1]; [4]", "value": 41.5, "unit": "%"}
    ]}
  ]
}
